Data as given in patent publication US10995101B2, “2-oxo-thiazole derivatives as A2A inhibitors and compounds for use in the treatment of cancers” (iTeos Therapeutics SA, priority 2017, dated 2021).

Molecular target: A2A receptor (Homo sapiens, UniProt P29274)
Assay: Human IL-2 T cell assay (restoration of IL-2 production in CGS-21680-treated CD3+ T cells)
Assay type: cell-based
Set-up: endogenous in cells; host or cells: human CD3+ T cells isolated from venous blood of healthy volunteers
Conditions: restoration of IL-2 production, human CD3+ T cells, anti-CD3/CD28 beads, 72 hours
Excerpt: When T-cells are activated, they produce pro-inflammatory cytokines. When the A2A receptor is activated in T cells, the amount of cytokines produced in response to stimulation of T-cells is reduced.
Venous blood from healthy volunteers, all of whom signed an informed consent approved by the Ethics Committee (FOR-UIC-BV-050-01-01 ICF_HBS_HD Version 5.0), was obtained via ImmuneHealth (Centre Hospitalier Universitaire Tivoli, La Louviere, Belgium). Mononuclear cells were collected by density gradient centrifugation, using SepMate-50 tubes (StemCell Technologies, Grenoble, France) and Lymphoprep (Axis-shield, Oslo, Norway) according to the manufacturer's instructions. CD3+ T cells were isolated by immunomagnetic negative selection, using the EasySep Human T Cell Isolation Kit (StemCell Technologies) as per manufacturer's instructions. CD3+ T cells were stored in heat inactivated foetal bovine serum (hiFBS; Gibco, ThermoFisher Scientific, Merelbeke, Belgium) containing 10% DMSO in liquid nitrogen.
Human purified CD3+ T cells were thawed and washed twice with RPMI1640 medium (with UltraGlutamine; Lonza, Verviers, Belgium) supplemented with 1× non-essential amino acids (Lonza), 2% Pen/Strep (Lonza) and 1 mM Sodium Pyruvate (Gibco) (complete media), containing 10% hiFBS. The cells were suspended either in complete media containing 20% hiFBS or in 100% heat inactivated human serum (hiHS; Sigma-Aldrich, Diegem, Belgium). Cells were activated by adding anti-CD3 and anti-CD28 coated microbeads (Dynabeads human T-activator CD3/CD28; Life Technologies, Paisley, UK), suspended either in complete media containing 20% hiFBS or in 100% hiHS. […] Serial dilutions of the compounds of the present invention were prepared and added to the wells. The cells were placed in a 37° C. humidified tissue culture incubator with 5% CO2 for 72 hours. After 72 hours, supernatants were sampled and IL-2 was quantified using the IL-2 (human) AlphaLISA Biotin-Free Detection Kit (AL333F; Perkin-Elmer, Zaventem, Belgium), according to the manufacturer's instructions.

A2A receptor, sequence (P29274 whole entry): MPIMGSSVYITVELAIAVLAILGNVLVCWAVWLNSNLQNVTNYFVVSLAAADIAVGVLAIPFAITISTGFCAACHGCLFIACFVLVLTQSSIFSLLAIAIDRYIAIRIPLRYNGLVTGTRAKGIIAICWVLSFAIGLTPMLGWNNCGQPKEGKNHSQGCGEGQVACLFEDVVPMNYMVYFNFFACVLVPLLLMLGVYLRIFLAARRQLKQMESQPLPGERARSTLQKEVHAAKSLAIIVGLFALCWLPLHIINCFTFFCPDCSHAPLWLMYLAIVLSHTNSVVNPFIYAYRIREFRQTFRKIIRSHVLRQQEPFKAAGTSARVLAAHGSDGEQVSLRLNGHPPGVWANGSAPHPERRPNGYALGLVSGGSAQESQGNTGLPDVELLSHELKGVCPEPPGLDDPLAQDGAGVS

## NC(=O)COc1cc(N2CCN(CCn3c(=O)sc4c3nc(N)n3nc(-c5ccco5)nc43)CC2)c(F)cc1F [Compound 4, 2-(5-(4-(2-(5-amino-8-(furan-2-yl)-2-oxothiazolo[5,4-e][1,2,4]triazolo [1,5-c]pyrimidin-3(2H)-yl)ethyl)piperazin-1-yl)-2,4-difluorophenoxy)acetamide]
IC50 (nM) (500 nM CGS-21680 as agonist, 10% FBS), 500 nM CGS-21680, 10% FBS
  IC50: 0.3 nM
IC50 (nM) (5000 nM CGS-21680 as agonist, 50% HSA), 5000 nM CGS-21680, 50% HSA
  IC50: 63 nM
